Test results from US8450266B2 (Ipsen Pharma S.A.S., priority 2008, dated 2013).
Where a SMILES comes first, the peptide text is derived from it. [ ]: non-standard residue; d: D form. The star is where a group is joined. Decanoyl = CCCCCCCCCC(=O)*; Ac6c = NC1(C(=O)O)CCCCC1; Orn = NCCC[C@H](N)C(=O)O; X1 = CCCN1C(=O)CC(*)C1=O; Hexanoyl = CCCCCC(=O)*

Experiments:
[1] = Human plasma half-life assay (LC-MS); format: in vitro ADME; details: incubated at 37° C., read-out: Human Plasma T½ (converted)
Summary of the method: (§1)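 Aliquots taken from human or rat plasma at time points up to 72 h, quenched with formic acid and acetonitrile, centrifuged. Supernatant analyzed by LC-MS (ESI, positive ion, full scan) on a C8 column with a water/acetonitrile 1% formic acid gradient.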

[2] = Rat plasma half-life assay (LC-MS); format: in vitro ADME; details: incubated at 37° C., read-out: Rat Plasma T½ (converted)
Summary of the method: as §1

| SMILES | half-life at 0.1 mg/ml [1] | half-life at 0.1 mg/ml [2] | half-life at 0.1 mg/mL [1] | half-life at 0.1 mg/mL [2] |
| --- | --- | --- | --- | --- |
| CCCCCC(=O)NCCC[C@H](NC(=O)[C@H](CCCCN)NC(=O)[C@H](CCC(N)=O)NC(=O)[C@H](C)NC(=O)[C@H](CC(C)C)NC(=O)[C@H](CC(C)C)NC(=O)[C@H](Cc1c[nH]c2ccccc12)NC(=O)[C@H](CC(N)=O)NC(=O)[C@@H](NC(=O)[C@H](Cc1ccccc1)NC(=O)[C@H](CC(=O)O)NC(=O)[C@H](CCC(N)=O)NC(=O)[C@H](CCC(N)=O)NC(=O)[C@H](Cc1c[nH]cn1)NC(=O)[C@@H](NC(=O)[C@H](CCCCN)NC(=O)[C@H](CC(=O)O)NC(=O)[C@H](CCSC)NC(=O)[C@H](C)NC(=O)[C@@H](NC(=O)[C@H](CO)NC(=O)[C@H](Cc1ccc(O)cc1)NC(=O)[C@H](CC(=O)O)NC(=O)[C@H](CO)NC(=O)C1(N)CCCCC1)[C@@H](C)CC)[C@@H](C)CC)C(C)C)C(=O)N[C@@H](CCCCN)C(=O)N[C@@H](CCCCN)C(=O)N[C@@H](CC(N)=O)C(=O)N[C@@H](CC(=O)O)C(=O)N[C@@H](Cc1c[nH]c2ccccc12)C(=O)N[C@@H](CCCCN)C(=O)N[C@@H](Cc1c[nH]cn1)C(=O)N[C@@H](CC(N)=O)C(=O)N[C@H](C(=O)N[C@H](C(=O)N[C@@H](CCC(N)=O)C(=O)O)[C@@H](C)O)[C@@H](C)CC [Example 17, [A6c^7, Orn^31(N-C(O)-(CH2)4-CH3)]hGIP(7-42)-OH] (H-[Ac6c]SDYSIAMDKIHQQDFVNWLLAQK[Orn](Hexanoyl)KKNDWKHNITQ-OH) | > 50 h | 9.4 h | – | – |
| CCCN1C(=O)CC(SC[C@H](NC(=O)[C@H](CCCCN)NC(=O)[C@H](CCC(N)=O)NC(=O)[C@H](C)NC(=O)[C@H](CC(C)C)NC(=O)[C@H](CC(C)C)NC(=O)[C@H](Cc2c[nH]c3ccccc23)NC(=O)[C@H](CC(N)=O)NC(=O)[C@@H](NC(=O)[C@H](Cc2ccccc2)NC(=O)[C@H](CC(=O)O)NC(=O)[C@H](CCC(N)=O)NC(=O)[C@H](CCC(N)=O)NC(=O)[C@H](Cc2c[nH]cn2)NC(=O)[C@@H](NC(=O)[C@H](CCCCN)NC(=O)[C@H](CC(=O)O)NC(=O)[C@H](CCSC)NC(=O)[C@H](C)NC(=O)[C@@H](NC(=O)[C@H](CO)NC(=O)[C@H](Cc2ccc(O)cc2)NC(=O)[C@H](CC(=O)O)NC(=O)[C@H](CO)NC(=O)C2(NC(=O)[C@H](Cc3ccccc3)NC(C)=O)CCCCC2)[C@@H](C)CC)[C@@H](C)CC)C(C)C)C(N)=O)C1=O (some centres unmarked) [Example 33, [Ac-Phe^6, A6c^7, Cys(Psu)^31]hGIP(6-31)-NH2] | – | – | 13.6 h | 10.2 h |
| CC[C@H](C)[C@H](NC(=O)[C@H](CCCCN)NC(=O)[C@H](CC(=O)O)NC(=O)[C@H](CCSC)NC(=O)C(C)(C)NC(=O)[C@@H](NC(=O)[C@H](CO)NC(=O)[C@H](Cc1ccc(O)cc1)NC(=O)[C@H](CC(=O)O)NC(=O)[C@H](CO)NC(=O)[C@@H](NC(=O)[C@H](Cc1ccccc1)NC(=O)[C@@H](NC(=O)CNC(=O)[C@H](CCC(=O)O)NC(=O)CCc1ccc(O)cc1)[C@@H](C)O)[C@@H](C)CC)[C@@H](C)CC)C(=O)N[C@@H](Cc1c[nH]cn1)C(=O)N[C@@H](CCC(N)=O)C(=O)N[C@@H](CCC(N)=O)C(=O)N[C@@H](CC(=O)O)C(=O)N[C@@H](Cc1ccccc1)C(=O)N[C@H](C(=O)N[C@@H](CC(N)=O)C(=O)N[C@@H](Cc1c[nH]c2ccccc12)C(=O)N[C@@H](CC(C)C)C(=O)N[C@@H](CC(C)C)C(=O)N[C@@H](C)C(=O)N[C@@H](CCC(N)=O)C(=O)N[C@@H](CCCCN)C(=O)NCC(=O)N[C@@H](CCCCN)C(=O)N[C@@H](CCCCN)C(=O)N[C@@H](CC(N)=O)C(=O)N[C@@H](CC(=O)O)C(=O)N[C@@H](Cc1c[nH]c2ccccc12)C(=O)N[C@@H](CCCCN)C(=O)N[C@@H](Cc1c[nH]cn1)C(=O)N[C@@H](CC(N)=O)C(=O)N[C@H](C(=O)N[C@H](C(=O)N[C@@H](CCC(N)=O)C(=O)O)[C@@H](C)O)[C@@H](C)CC)C(C)C [Example 44, (4Hppa^2, Aib^13)hGIP(2-42)-OH)] | – | – | 48.8 h | 9.9 h |
| CCCCCC(=O)NCCC[C@H](NC(=O)[C@H](CCCCN)NC(=O)[C@H](CCC(N)=O)NC(=O)[C@H](C)NC(=O)[C@H](CC(C)C)NC(=O)[C@H](CC(C)C)NC(=O)[C@H](Cc1c[nH]c2ccccc12)NC(=O)[C@H](CC(N)=O)NC(=O)[C@@H](NC(=O)[C@H](Cc1ccccc1)NC(=O)[C@H](CC(=O)O)NC(=O)[C@H](CCC(N)=O)NC(=O)[C@H](CCC(N)=O)NC(=O)[C@H](Cc1c[nH]cn1)NC(=O)[C@@H](NC(=O)[C@H](CCCCN)NC(=O)[C@H](CC(=O)O)NC(=O)[C@H](CCSC)NC(=O)[C@H](C)NC(=O)[C@@H](NC(=O)[C@H](CO)NC(=O)[C@H](Cc1ccc(O)cc1)NC(=O)[C@H](CC(=O)O)NC(=O)[C@H](CO)NC(=O)C1(NC(C)=O)CCCCC1)[C@@H](C)CC)[C@@H](C)CC)C(C)C)C(=O)N[C@@H](CCCCN)C(=O)N[C@@H](CCCCN)C(=O)N[C@@H](CC(N)=O)C(=O)N[C@@H](CC(=O)O)C(=O)N[C@@H](Cc1c[nH]c2ccccc12)C(=O)N[C@@H](CCCCN)C(=O)N[C@@H](Cc1c[nH]cn1)C(=O)N[C@@H](CC(N)=O)C(=O)N[C@H](C(=O)N[C@H](C(=O)N[C@@H](CCC(N)=O)C(=O)O)[C@@H](C)O)[C@@H](C)CC [Example 16, [Ac-A6c^7, Orn^31(N-C(O)-(CH2)4-CH3)]hGIP(7-42)-OH] (Ac-[Ac6c]SDYSIAMDKIHQQDFVNWLLAQK[Orn](Hexanoyl)KKNDWKHNITQ-OH) | > 50 h | 30 h | – | – |
| CCCCCCCCCC(=O)NCCC[C@H](NC(=O)[C@H](CCCCN)NC(=O)[C@H](CCC(N)=O)NC(=O)[C@H](C)NC(=O)[C@H](CC(C)C)NC(=O)[C@H](CC(C)C)NC(=O)[C@H](Cc1c[nH]c2ccccc12)NC(=O)[C@H](CC(N)=O)NC(=O)[C@@H](NC(=O)[C@H](Cc1ccccc1)NC(=O)[C@H](CC(=O)O)NC(=O)[C@H](CCC(N)=O)NC(=O)[C@H](CCC(N)=O)NC(=O)[C@H](Cc1c[nH]cn1)NC(=O)[C@@H](NC(=O)[C@H](CCCCN)NC(=O)[C@H](CC(=O)O)NC(=O)[C@H](CCSC)NC(=O)[C@H](C)NC(=O)[C@@H](NC(=O)[C@H](CO)NC(=O)[C@H](Cc1ccc(O)cc1)NC(=O)[C@H](CC(=O)O)NC(=O)[C@@H](N)CO)[C@@H](C)CC)[C@@H](C)CC)C(C)C)C(=O)N[C@@H](CCCCN)C(=O)N[C@@H](CCCCN)C(=O)N[C@@H](CC(N)=O)C(=O)N[C@@H](CC(=O)O)C(=O)N[C@@H](Cc1c[nH]c2ccccc12)C(=O)N[C@@H](CCCCN)C(=O)N[C@@H](Cc1c[nH]cn1)C(=O)N[C@@H](CC(N)=O)C(=O)N[C@H](C(=O)N[C@H](C(=O)N[C@@H](CCC(N)=O)C(=O)O)[C@@H](C)O)[C@@H](C)CC [Example 39, [Orn^31(N-C(O)-(CH2)8-CH3)]hGIP(8-42)-OH] (H-SDYSIAMDKIHQQDFVNWLLAQK[Orn](Decanoyl)KKNDWKHNITQ-OH) | 31.1 h | 13.7 h | – | – |
| CCCN1C(=O)CC(SC[C@H](NC(=O)[C@H](CCCCN)NC(=O)[C@H](Cc2c[nH]c3ccccc23)NC(=O)[C@H](CC(=O)O)NC(=O)[C@H](CC(N)=O)NC(=O)[C@H](CCCCN)NC(=O)[C@H](CCCCN)NC(=O)CNC(=O)[C@H](CCCCN)NC(=O)[C@H](CCC(N)=O)NC(=O)[C@H](C)NC(=O)[C@H](CC(C)C)NC(=O)[C@H](CC(C)C)NC(=O)[C@H](Cc2c[nH]c3ccccc23)NC(=O)[C@H](CC(N)=O)NC(=O)[C@@H](NC(=O)[C@H](Cc2ccccc2)NC(=O)[C@H](CC(=O)O)NC(=O)[C@H](CCC(N)=O)NC(=O)[C@H](CCC(N)=O)NC(=O)[C@H](Cc2c[nH]cn2)NC(=O)[C@@H](NC(=O)[C@H](CCCCN)NC(=O)[C@H](CC(=O)O)NC(=O)[C@H](CCSC)NC(=O)[C@H](C)NC(=O)[C@@H](NC(=O)[C@H](CO)NC(=O)[C@H](Cc2ccc(O)cc2)NC(=O)[C@H](CC(=O)O)NC(=O)[C@H](CO)NC(=O)C2(NC(C)=O)CCCCC2)[C@@H](C)CC)[C@@H](C)CC)C(C)C)C(=O)N[C@@H](CC(N)=O)C(=O)N[C@H](C(=O)N[C@H](C(=O)N[C@@H](CCC(N)=O)C(=O)O)[C@@H](C)O)[C@@H](C)CC)C1=O (some centres unmarked) [Example 4, [Ac-A6c^7, Cys(Psu)^38]hGIP(7-42)-OH] (Ac-[Ac6c]SDYSIAMDKIHQQDFVNWLLAQKGKKNDWKC(X1)NITQ-OH) | – | – | 10 h | 6 h |
| CC[C@H](C)[C@H](NC(=O)[C@H](CO)NC(=O)[C@H](Cc1ccc(O)cc1)NC(=O)[C@H](CC(=O)O)NC(=O)[C@H](CO)NC(=O)C1(NC(C)=O)CCCCC1)C(=O)N[C@@H](C)C(=O)N[C@@H](CCSC)C(=O)N[C@@H](CC(=O)O)C(=O)N[C@@H](CCCCN)C(=O)N[C@H](C(=O)N[C@@H](Cc1c[nH]cn1)C(=O)N[C@@H](CCC(N)=O)C(=O)N[C@@H](CCC(N)=O)C(=O)N[C@@H](CC(=O)O)C(=O)N[C@@H](Cc1ccccc1)C(=O)N[C@H](C(=O)N[C@@H](CC(N)=O)C(=O)N[C@@H](Cc1c[nH]c2ccccc12)C(=O)N[C@@H](CC(C)C)C(=O)N[C@@H](CC(C)C)C(=O)N[C@@H](C)C(=O)N[C@@H](CCC(N)=O)C(=O)N[C@@H](CCCCN)C(=O)NCC(=O)N[C@@H](CCCCN)C(=O)N[C@@H](CCCCN)C(=O)N[C@@H](CC(N)=O)C(=O)N[C@@H](CC(=O)O)C(=O)N[C@@H](Cc1c[nH]c2ccccc12)C(=O)N[C@@H](CCCCN)C(=O)N[C@@H](Cc1c[nH]cn1)C(=O)N[C@@H](CC(N)=O)C(=O)N[C@H](C(=O)N[C@H](C(=O)N[C@@H](CCC(N)=O)C(=O)O)[C@@H](C)O)[C@@H](C)CC)C(C)C)[C@@H](C)CC [Example 1, (Ac-A6c^7)hGIP(7-42)-OH] | > 72 h | 11 h | – | – |
